Assays:
[1] = test system: HeLa (cervical cancer cells), AR-negative; assay: Cell monolayer growth assay (MTT); type: cell-based
Method: (§1) FIG. 12B is a graph showing the effect of KCI807 on in vitro growth of AR-negative cell line HeLa cells measured by the MTT assay. All values were plotted relative to the Day zero value. Cells were trypsinized and 3000-4000 cells/well were seeded in 96-well plates coated with poly-D-lysine. The cells were seeded in phenol red-free medium supplemented with 10% FBS, 100 units/ml penicillin, 100 μg/ml streptomycin, 2 mM L-glutamine mixture and sodium pyruvate (1 mM) for LNCaP cells and phenol red-free medium supplemented with 10% FBS, 100 units/ml penicillin, 100 μg/ml streptomycin and 2 mM L-glutamine mixture for VCaP, 22Rv1, DU145, HeLa, HEK293 and H1650 cells. The cells were grown at 37° C. in 5% CO2. Twenty four hours after seeding in the 96-well plates, the cells were treated with the indicated concentration of KCI807 or DMSO (vehicle). The cells were re-treated on Day 3 by removing half the volume of medium and replacing it with fresh treated medium. Cell viability was determined using the MTT assay from day zero until day five. MTT (10 μL, 5 mg/mL) was added to each well and incubated for 2h at 37° C. The formazan crystal sediments were dissolved in 100 μL of DMSO, and the absorbance at 570 nm was measured using the BioTek Synergy 2 Microplate Reader (BioTek, Winooski, Vt.). The assay was conducted in sextuplicate wells and values were normalized to day zero.

[2] = test system: HEK293 (adenovirus transformed kidney fibroblasts), AR-negative; assay: Cell monolayer growth assay (MTT); type: cell-based
Method: FIG. 12C is a graph showing the effect of KCI807 on in vitro growth of AR-negative cell line HEK293 cells measured by the MTT assay. All values were plotted relative to the Day zero value.
as §1, with “Cells” for “FIG. 12B is a graph showing the effect of KCI807 on in vitro growth of AR-negative cell line HeLa cells measured by the MTT assay. All values were plotted relative to the Day zero value. Cells”

[3] = test system: AR recruitment to chromatin in LNCaP cells; assay: Chromatin immunoprecipitation (ChIP) with AR antibody in LNCaP cells; type: cell-based; conditions: R1881 10 nM + KCI807 20 uM, 2h
Method: FIGS. 2E and 2F are graphs showing results of tests in which LNCaP cells were treated with R1881 (10 nM), R1881 (10 nM)+KCI807 (20 uM), or vehicle for 2h. The cells were fixed and subjected to the chromatin immunoprecipitation (ChIP) assay using antibody to AR. ChIP signals from established sites of AR recruitment by ELK1 (FIG. 2E) or from canonical ARE enhancer sites associated with the KLK3 and TMPRSS2 genes (FIG. 2F) are plotted as percent of input DNA.
The ability of KCI807 to selectively block recruitment of AR by ELK1 to chromatin in situ was tested.

[4] = Metabolite identification in serum of treated mice by LC-MS/MS; type: in vivo, mouse; conditions: 250 mg/kg every other day
Text: To identify potential metabolites of KCI807 in mice, serum and liver samples collected from the control (untreated) and KCI807-treated mice were subjected to the LC-MS/MS analysis. Sample preparation and chromatographic separation were the same as that described above. Column eluents of the control and drug-treated samples were surveyed using different scan modes including full scan, product scan, and multiple reaction monitoring scan. […] The […] was operated under the optimized condition as for KCI807, and hypothesized theoretical mass transitions for potential metabolites were monitored (see Tables 3 and 4).
If a chromatographic peak monitored at the theoretical transition(s) corresponding to a particular metabolite was identified in the drug-treated samples but not in the control (untreated) samples, this metabolite was identified as a metabolite of KCI807, see FIG. 20.
Serum from mice that were injected with 250 mg/kg of 5,3′-Dihydroxyflavone every other day for two weeks was analyzed to identify potential metabolites by LCMS using hypothesized mass transitions. […]

22Rv1 CRPC cells = assay: Colony growth assay; type: cell-based, human
Method: FIGS. 4A, 4B, 4C, 4D, 4E, 4F, 4G, and 4H relate to inhibition of AR-dependent PC/CRPC clonogenic survival and cell growth by KCI807 and comparison with enzalutamide. FIG. 4A is an image of 22Rv1 cells that were seeded in phenol red-free growth media and treated with the indicated concentration of KCI807, replenishing the treatments every 48h. Colonies were stained with crystal violet 10 days after plating. Treatments were conducted in triplicate. Representative images are shown. FIG. 4B is a graph showing data from replicate colony formation assays shown in FIG. 4A are plotted as a histogram. Each bar represents the average number of colonies for each triplicate treatment. Cells were trypsinized, and 1000 cells/well were seeded in poly-D-lysine coated 6-well plates in phenol red-free regular growth media. The cells were treated with the indicated concentration of KCI807, which was replenished every 48h. The cells were grown at 37° C. in 5% CO2 for 10 days until colonies-grew to the desired size in the untreated control wells. Colonies were fixed with methanol and stained with crystal violet. Each treatment was conducted in triplicate and the number of colonies was counted using the GelCount™ colony counter and a 350 size cutoff.

MCF-7 cells = assay: Breast cancer cell growth, MTT assay; type: cell-based
Method: Twenty four hours after plating the cells, they were treated with the indicated concentrations of the compound.

C4-2 cells = assay: Cell growth assay; type: cell-based
Text: FIG. 16C is a graph showing the effect of 5′-Fluoro-5,3′-Dihydroxyflavone at various concentrations on growth of C4-2 cells.

| Compound | growth of HeLa cells [1] | growth of HEK293 cells [2] | AR association with chromatin sites at which ELK1 recruits AR [3] | AR recruitment at canonical ARE enhancer sites (KLK3, TMPRSS2) [3] | major metabolites / compounds identified in plasma or serum [4] | major metabolites / compounds identified in plasma or serum ([4]; listed as 5,3′-Dihydroxyflavone) | colony growth inhibition (in words) (22Rv1 CRPC cells; 22Rv1, beyond 125 nM compound) | IC50 (22Rv1 CRPC cells; Homo sapiens, 22Rv1, 10 days, treatment replenished every 48h, read-out: IC50 of colony growth inhibition) | growth of MCF-7 cells (MCF-7 cells) | growth inhibition of C4-2 cells (C4-2 cells) |
| --- | --- | --- | --- | --- | --- | --- | --- | --- | --- | --- |
| O=c1cc(-c2cccc(O)c2)oc2cccc(O)c12 [KCI807, 5,3′-dihydroxyflavone] | did not appreciably affect the growth | did not appreciably affect the growth | prevented association of AR | did not affect AR recruitment | glucuronidation and other modifications at the 3′ position | Unmetabolized compound and a single glucuronide metabolite modified at the 3′-OH position | virtually completely inhibited | 33.1 nM | growth inhibitory |  |
| O=c1cc(-c2cc(O)cc(F)c2)oc2cccc(O)c12 [5′-fluoro-5,3′-dihydroxyflavone] |  |  |  |  |  |  |  |  |  | inhibited growth |
